Data taken from patent US8283353B2, “Fused ring compound and use thereof” (Takeda Pharmaceutical Company Limited, priority 2009, dated 2012).

Experiments:
human AT1 receptor = target: T1, human AT1 receptor (Homo sapiens, UniProt P30556); experiment: AT1 receptor antagonistic activity: [125I]-angiotensin II binding assay on human AT1 receptor-expressing CHO-K1 cellular membrane fraction; conditions: 22.5 pM [125I]-angiotensin II, 1 hr room temperature
T1 construct: expressed in transfected cells; membrane fraction
T1 sequence (P30556 1-359): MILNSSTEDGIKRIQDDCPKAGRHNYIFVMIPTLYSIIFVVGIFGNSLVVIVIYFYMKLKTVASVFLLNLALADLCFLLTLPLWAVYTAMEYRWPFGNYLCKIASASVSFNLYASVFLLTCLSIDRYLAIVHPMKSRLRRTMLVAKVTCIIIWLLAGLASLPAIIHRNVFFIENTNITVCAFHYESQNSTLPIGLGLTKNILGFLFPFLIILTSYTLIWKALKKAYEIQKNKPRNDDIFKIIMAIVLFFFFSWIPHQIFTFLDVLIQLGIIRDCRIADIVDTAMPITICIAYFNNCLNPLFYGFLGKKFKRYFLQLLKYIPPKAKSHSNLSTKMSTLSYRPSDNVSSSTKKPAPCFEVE
Outline: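 Competition binding used radiolabelled angiotensin II on stably transfected CHO-K1 membrane fractions in Tris pH 7.4/MgCl2 buffer, optionally containing 0.3 mg/mL fatty acid-free BSA, 1 hr at room temperature. Filtration onto GF/C separated bound tracer, and nonspecific binding was measured with candesartan.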

human PPARγ = target: T2, human PPARγ (Homo sapiens, UniProt P37231); experiment: PPARγ agonistic activity: luciferase reporter assay in PPARγ:RXRα:4ERPP/CHO-K1 cells; assay type: cell-based; conditions: CHO-K1, test compound 10^−6 M; luciferase activity of control compound X (1 μM) = 100%, non-administration group = 0%
T2 construct: expressed in transfected cells
T2 sequence (P37231 1-477 isoform P37231-2): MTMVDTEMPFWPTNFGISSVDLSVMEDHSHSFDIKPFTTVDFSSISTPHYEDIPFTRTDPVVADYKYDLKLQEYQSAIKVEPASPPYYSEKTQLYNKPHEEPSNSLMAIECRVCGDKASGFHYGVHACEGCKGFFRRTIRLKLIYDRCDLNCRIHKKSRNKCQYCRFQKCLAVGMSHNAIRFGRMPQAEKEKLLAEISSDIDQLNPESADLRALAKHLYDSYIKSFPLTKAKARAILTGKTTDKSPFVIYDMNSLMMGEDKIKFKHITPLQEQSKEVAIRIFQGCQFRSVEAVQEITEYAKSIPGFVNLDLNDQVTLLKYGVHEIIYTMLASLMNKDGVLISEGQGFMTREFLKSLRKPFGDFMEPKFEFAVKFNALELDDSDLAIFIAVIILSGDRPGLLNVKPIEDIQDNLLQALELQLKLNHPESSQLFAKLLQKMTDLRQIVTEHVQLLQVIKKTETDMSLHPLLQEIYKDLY
T2 sequence (P19793 1-462 partner): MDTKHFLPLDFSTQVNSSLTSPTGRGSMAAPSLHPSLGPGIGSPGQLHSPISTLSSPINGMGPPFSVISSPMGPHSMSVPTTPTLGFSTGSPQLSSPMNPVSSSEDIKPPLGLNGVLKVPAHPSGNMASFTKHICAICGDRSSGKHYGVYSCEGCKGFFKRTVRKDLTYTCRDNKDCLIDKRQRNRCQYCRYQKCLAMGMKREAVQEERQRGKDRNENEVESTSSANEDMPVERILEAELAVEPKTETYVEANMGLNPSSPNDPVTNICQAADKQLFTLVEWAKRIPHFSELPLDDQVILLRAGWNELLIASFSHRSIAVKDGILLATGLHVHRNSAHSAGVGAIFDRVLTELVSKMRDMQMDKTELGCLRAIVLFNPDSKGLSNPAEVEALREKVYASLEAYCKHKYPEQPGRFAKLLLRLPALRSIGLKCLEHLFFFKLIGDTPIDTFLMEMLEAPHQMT
Outline: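 Activity is expressed relative to untreated cells (0%) and 1 μM reference compound X (100%), from luciferase luminescence. Reporter line: PPARγ:RXRα:4ERPP/CHO-K1, exposed to compound for one day at 37 °C in F12 medium containing 0.1% fatty-acid-free BSA.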

Structure (SMILES)	IC50 (human AT1 receptor)	activation at 1 µM (human PPARγ)
CCCc1c(Cc2ccc(-c3ccccc3-c3noc(=O)[nH]3)cc2)c(=O)n([C@H]2CC[C@](C)(OCC(C)(C)O)CC2)c2ncnn12 [Example 385, 4-[trans-4-(2-hydroxy-2-methylpropoxy)-4-methylcyclohexyl]-6-{[2′-(5-oxo-4,5-dihydro-1,2,4-oxadiazol-3-yl)biphenyl-4-yl]methyl}-7-propyl[1,2,4]triazolo[1,5-a]pyrimidin-5(4H)-one]	2 nM	23%
CCCc1c(Cc2ccc(-c3ccccc3-c3noc(=O)[nH]3)cc2F)c(=O)n(C2CCOCC2)c2ncnn12 [Example 117, 6-{[3-fluoro-2′-(5-oxo-4,5-dihydro-1,2,4-oxadiazol-3-yl)biphenyl-4-yl]methyl}-7-propyl-4-(tetrahydro-2H-pyran-4-yl)[1,2,4]triazolo[1,5-a]pyrimidin-5(4H)-one]	1.3 nM	18%
CCCc1c(Cc2ccc(-c3ccccc3-c3noc(=O)[nH]3)cc2)c(=O)n([C@H]2CC[C@H](OCC(C)(O)CF)CC2)c2nc(C)nn12 (stereo partly drawn) [Example 354, 4-[trans-4-(3-fluoro-2-hydroxy-2-methylpropoxy)cyclohexyl]-2-methyl-6-{[2′-(5-oxo-4,5-dihydro-1,2,4-oxadiazol-3-yl)biphenyl-4-yl]methyl}-7-propyl[1,2,4]triazolo[1,5-a]pyrimidin-5(4H)-one]	1.2 nM	18%
CCCc1c(Cc2ccc(-c3ccccc3-c3noc(=O)[nH]3)cc2F)c(=O)n([C@H]2CC[C@@H](O)CC2)c2ncnn12 [Example 166, 6-{[3-fluoro-2′-(5-oxo-4,5-dihydro-1,2,4-oxadiazol-3-yl)biphenyl-4-yl]methyl}-4-(cis-4-hydroxycyclohexyl)-7-propyl[1,2,4]triazolo[1,5-a]pyrimidin-5(4H)-one]	1.3 nM	22%
CCCc1c(Cc2ccc(-c3ccccc3-c3noc(=O)[nH]3)cc2)c(=O)n(C2CCC(=NOC3CCOCC3)CC2)c2ncnn12 (centres unmarked) [Example 195, 6-{[2′-(5-oxo-4,5-dihydro-1,2,4-oxadiazol-3-yl)biphenyl-4-yl]methyl}-7-propyl-4-{4-[(tetrahydro-2H-pyran-4-yloxy)imino]cyclohexyl}[1,2,4]triazolo[1,5-a]pyrimidin-5(4H)-one]	2.5 nM	19%
CCCc1c(Cc2ccc(-c3ccccc3-c3noc(=O)[nH]3)cc2)c(=O)n([C@H]2CC[C@H](OCC3(O)CC3)CC2)c2ccnn12 [Example 427, 4-{trans-4-[(1-hydroxycyclopropyl)methoxy]cyclohexyl}-6-{[2′-(5-oxo-4,5-dihydro-1,2,4-oxadiazol-3-yl)biphenyl-4-yl]methyl}-7-propylpyrazolo[1,5-a]pyrimidin-5(4H)-one]	1.9 nM	18%
CCCc1c(Cc2ccc(-c3ccccc3-c3noc(=O)[nH]3)cc2)c(=O)n([C@H]2CC[C@H](c3nnc(C)o3)CC2)c2ncnn12 [Example 173, 4-[trans-4-(5-methyl-1,3,4-oxadiazol-2-yl)cyclohexyl]-6-{[2′-(5-oxo-4,5-dihydro-1,2,4-oxadiazol-3-yl)biphenyl-4-yl]methyl}-7-propyl[1,2,4]triazolo[1,5-a]pyrimidin-5(4H)-one]	1.7 nM	28%
CCCCc1c(Cc2ccc(-c3ccccc3-c3nnn[nH]3)cc2F)c(=O)n([C@H]2CC[C@H](OCC(C)(C)O)CC2)c2ncnn12 [Example 457, 7-butyl-6-{[3-fluoro-2′-(1H-tetrazol-5-yl)biphenyl-4-yl]methyl}-4-[trans-4-(2-hydroxy-2-methylpropoxy)cyclohexyl][1,2,4]triazolo[1,5-a]pyrimidin-5(4H)-one]	1.8 nM	19%
CCCc1c(Cc2ccc(-c3ccccc3-c3noc(=O)[nH]3)cc2)c(=O)n([C@H]2CC[C@H](OCC(C)(C)O)CC2)c2c(F)cnn12 [Example 442, 3-fluoro-4-[trans-4-(2-hydroxy-2-methylpropoxy)cyclohexyl]-6-{[2′-(5-oxo-4,5-dihydro-1,2,4-oxadiazol-3-yl)biphenyl-4-yl]methyl}-7-propylpyrazolo[1,5-a]pyrimidin-5(4H)-one]	2 nM	22%
CCCc1c(Cc2ccc(-c3ccccc3-c3noc(=O)[nH]3)cc2F)c(=O)n([C@H]2CC[C@H](OC(CC)C(C)(C)O)CC2)c2ncnn12 (stereo partly drawn) [Example 355, 4-[trans-4-(1-ethyl-2-hydroxy-2-methylpropoxy)cyclohexyl]-6-{[3-fluoro-2′-(5-oxo-4,5-dihydro-1,2,4-oxadiazol-3-yl)biphenyl-4-yl]methyl}-7-propyl[1,2,4]triazolo[1,5-a]pyrimidin-5(4H)-one]	1.7 nM	25%

More lines, now with the values ahead:

IC50 (human AT1 receptor)	activation at 1 µM (human PPARγ)	Structure (SMILES)
1.4 nM	54%	CCCc1c(Cc2ccc(-c3ccccc3-c3noc(=O)[nH]3)cc2)c(=O)n([C@H]2CC[C@H](C(=O)OCC)CC2)c2ncnn12 [Example 168, ethyl trans-4-[5-oxo-6-{[2′-(5-oxo-4,5-dihydro-1,2,4-oxadiazol-3-yl)biphenyl-4-yl]methyl}-7-propyl[1,2,4]triazolo[1,5-a]pyrimidin-4(5H)-yl]cyclohexanecarboxylate]
1.8 nM	16%	CCCc1c(Cc2ccc(-c3ccccc3-c3noc(=O)[nH]3)cc2)c(=O)n([C@H]2CC[C@H](OC(C)C(C)(C)O)CC2)c2ncnn12 (stereo partly drawn) [Example 300, 4-[trans-4-(2-hydroxy-1,2-dimethylpropoxy)cyclohexyl]-6-{[2′-(5-oxo-4,5-dihydro-1,2,4-oxadiazol-3-yl)biphenyl-4-yl]methyl}-7-propyl[1,2,4]triazolo[1,5-a]pyrimidin-5(4H)-one]
2 nM	33%	C=CC(O)CO[C@H]1CC[C@H](n2c(=O)c(Cc3ccc(-c4ccccc4-c4noc(=O)[nH]4)cc3)c(CCC)n3ncnc32)CC1 (stereo partly drawn) [Example 331, 4-{trans-4-[(2-hydroxybut-3-en-1-yl)oxy]cyclohexyl}-6-{[2′-(5-oxo-4,5-dihydro-1,2,4-oxadiazol-3-yl)biphenyl-4-yl]methyl}-7-propyl[1,2,4]triazolo[1,5-a]pyrimidin-5(4H)-one]
2.4 nM	43%	CCCc1c(Cc2ccc(-c3ccccc3-c3noc(=O)[nH]3)cc2)c(=O)n([C@H]2CC[C@H](Oc3ccc(OC)cc3)CC2)c2ncnn12 [Example 271, 4-[trans-4-(4-methoxyphenoxy)cyclohexyl]-6-{[2′-(5-oxo-4,5-dihydro-1,2,4-oxadiazol-3-yl)biphenyl-4-yl]methyl}-7-propyl[1,2,4]triazolo[1,5-a]pyrimidin-5(4H)-one]
1.7 nM	29%	CCCc1c(Cc2ccc(-c3ccccc3-c3noc(=O)[nH]3)cc2)c(=O)n([C@H]2CC[C@H](OCC(C)(C)O)CC2)c2nc(C)nn12 [Example 296, 4-[trans-4-(2-hydroxy-2-methylpropoxy)cyclohexyl]-2-methyl-6-{[2′-(5-oxo-4,5-dihydro-1,2,4-oxadiazol-3-yl)biphenyl-4-yl]methyl}-7-propyl[1,2,4]triazolo[1,5-a]pyrimidin-5(4H)-one]
2.3 nM	22%	CCCc1c(Cc2ccc(-c3ccccc3-c3noc(=O)[nH]3)cc2)c(=O)n([C@H]2CC[C@H](OC3(C(C)(C)O)CC3)CC2)c2ncnn12 [Example 363, 4-(trans-4-{[1-(1-hydroxy-1-methylethyl)cyclopropyl]oxy}cyclohexyl)-6-{[2′-(5-oxo-4,5-dihydro-1,2,4-oxadiazol-3-yl)biphenyl-4-yl]methyl}-7-propyl[1,2,4]triazolo[1,5-a]pyrimidin-5(4H)-one]
